In US20100076015A1, “Aminopyridine Derivatives” (VANTIA LIMITED, priority 2008, published 2010) one finds IC50 data, which are given here for 7 molecules.

Type in all cases: biochemical
Assay [1] deals with T1, Human KLK1 (Homo sapiens, UniProt P06870).
T1 construct: purchased Callbiochem (Calbiochem)
Briefly: Determination of the IC50 for KLK1 (fluorogenic substrate H-DVal-Leu-Arg-AFC). The conditions noted are these: 37° C. Put shortly:
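hKLK1 + H-DVal-Leu-Arg-AFC, 37° C, varied cpd conc. Initial rate by A410 change → residual activity → IC50.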

The target of assay [2] is thrombin (Homo sapiens, UniProt P00734). Put plainly: Enzyme selectivity: thrombin (chromogenic substrate S-2238). The conditions noted are these: chromogenic substrate S-2238, 37° C. On the procedure: (§1) Determination of Enzyme Selectivity
(§2) Selected compounds were further screened for inhibitory activity against other trypsin-like serine proteases using the appropriate enzyme and chromogenic substrate (Chromogenix AB). The activity against the following human enzymes was tested (substrate in brackets):—plasma kallikrein (S-2302), thrombin (S-2238), plasmin (S-2390) and trypsin (S-2222). The enzyme was incubated at 37° C. with the chromogenic substrate. Residual enzyme activity (initial rate of reaction) was determined by measuring the change in optical absorbance at 405 nm.

Assay [3] addresses plasmin (Homo sapiens, UniProt P00747). Put plainly: Enzyme selectivity: plasmin (chromogenic substrate S-2390). The conditions noted are these: chromogenic substrate S-2390, 37° C. How it is done: as §1, §2
Assay [4] addresses trypsin. Briefly: Enzyme selectivity: trypsin (chromogenic substrate S-2222). As to conditions: human enzyme, chromogenic substrate S-2222, 37° C. On the procedure: as §1, §2
For assay [5], the target named is plasma kallikrein (Homo sapiens, UniProt P03952). Briefly: Enzyme selectivity: plasma kallikrein (chromogenic substrate S-2302). The conditions noted are these: chromogenic substrate S-2302, 37° C. How it is done: as §1, §2
plasma kallikrein, sequence (P03952 20-638): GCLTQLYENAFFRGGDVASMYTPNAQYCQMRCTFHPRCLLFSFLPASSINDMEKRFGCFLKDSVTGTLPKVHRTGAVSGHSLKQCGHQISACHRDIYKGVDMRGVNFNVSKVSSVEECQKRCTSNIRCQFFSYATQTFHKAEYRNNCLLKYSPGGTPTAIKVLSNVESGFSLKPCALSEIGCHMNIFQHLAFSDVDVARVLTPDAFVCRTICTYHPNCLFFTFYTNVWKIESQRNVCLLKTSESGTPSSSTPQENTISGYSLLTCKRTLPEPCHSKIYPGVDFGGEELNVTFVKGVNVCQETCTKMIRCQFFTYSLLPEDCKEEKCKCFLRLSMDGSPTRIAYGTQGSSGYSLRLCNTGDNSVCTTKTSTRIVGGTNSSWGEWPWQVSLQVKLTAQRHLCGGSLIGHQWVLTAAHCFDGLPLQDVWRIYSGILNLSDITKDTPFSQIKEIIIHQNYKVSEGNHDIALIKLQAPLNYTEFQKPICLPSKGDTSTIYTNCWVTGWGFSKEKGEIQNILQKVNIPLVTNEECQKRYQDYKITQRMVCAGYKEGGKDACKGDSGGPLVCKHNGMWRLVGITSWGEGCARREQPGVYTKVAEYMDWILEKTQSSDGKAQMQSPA

plasmin, sequence (P00747 581-810 limits assumed): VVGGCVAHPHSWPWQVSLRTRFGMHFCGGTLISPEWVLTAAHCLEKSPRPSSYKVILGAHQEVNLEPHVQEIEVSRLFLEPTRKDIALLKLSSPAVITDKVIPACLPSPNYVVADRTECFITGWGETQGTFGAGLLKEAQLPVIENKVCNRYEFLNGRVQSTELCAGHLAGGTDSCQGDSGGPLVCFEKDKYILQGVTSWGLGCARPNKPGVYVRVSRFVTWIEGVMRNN
plasmin, sequence (P00747 97-580 partner limits assumed): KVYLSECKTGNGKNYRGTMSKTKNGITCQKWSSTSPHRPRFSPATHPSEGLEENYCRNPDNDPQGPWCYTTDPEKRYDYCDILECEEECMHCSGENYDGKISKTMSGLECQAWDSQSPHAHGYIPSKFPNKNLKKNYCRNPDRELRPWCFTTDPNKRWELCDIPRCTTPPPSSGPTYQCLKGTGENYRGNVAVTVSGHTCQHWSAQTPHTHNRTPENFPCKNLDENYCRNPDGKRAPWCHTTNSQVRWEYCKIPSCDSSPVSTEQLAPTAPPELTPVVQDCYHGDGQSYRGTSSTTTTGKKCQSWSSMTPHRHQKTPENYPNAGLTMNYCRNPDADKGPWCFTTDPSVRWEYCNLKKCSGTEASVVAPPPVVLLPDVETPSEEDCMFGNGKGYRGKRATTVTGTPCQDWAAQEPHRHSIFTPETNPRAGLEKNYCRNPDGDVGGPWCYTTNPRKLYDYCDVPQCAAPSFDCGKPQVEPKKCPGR
T1 sequence (P06870 25-262): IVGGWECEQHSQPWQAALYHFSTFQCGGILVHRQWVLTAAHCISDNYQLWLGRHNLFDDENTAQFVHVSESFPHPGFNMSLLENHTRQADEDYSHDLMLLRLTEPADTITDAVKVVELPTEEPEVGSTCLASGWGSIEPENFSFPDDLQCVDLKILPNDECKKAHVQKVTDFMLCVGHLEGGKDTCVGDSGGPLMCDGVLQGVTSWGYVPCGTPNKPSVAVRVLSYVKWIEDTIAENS

For orientation: IC50 means the midpoint of a concentration-inhibition curve. A low value points to greater potency. In the case of `Cc1cc(C)c(C(=O)N[C@@H](Cc2ccc(F)cc2)C(=O)NCc2ccc(N)nc2)[nH]1` [Example 242, 3,5-Dimethyl-1H-pyrrole-2-carboxylic acid [(S)-1-[(6-amino-pyridin-3-ylmethyl)-carbamoyl]-2-(4-fluoro-phenyl)-ethyl]-amide], the IC50 in assay [1] is 0.0044 µM; in assay [2], > 10 µM; in assay [3], > 10 µM; in assay [4], > 10 µM; in assay [5] it was > 10 µM.
As to `CC(C)N(C)[C@@H](C)C(=O)N[C@@H](Cc1ccc(F)c(F)c1)C(=O)NCc1ccc(N)nc1` [Example 176, (S)—N-[(S)-1-[(6-Amino-pyridin-3-ylmethyl)-carbamoyl]-2-(3,4-difluoro-phenyl)-ethyl]-2-(isopropyl-methyl-amino)-propionamide], the IC50 in assay [1] was 0.004 µM; in assay [2], > 10 µM; in assay [3], > 10 µM; in assay [4] it was > 10 µM; in assay [5], > 10 µM.
In the case of `Cc1cc(C)c(C(=O)N[C@@H](Cc2ccc(Cl)c(Cl)c2)C(=O)NCc2ccc(N)nc2)[nH]1` [Example 233, 3,5-Dimethyl-1H-pyrrole-2-carboxylic acid [(S)-1-[(6-amino-pyridin-3-ylmethyl)-carbamoyl]-2-(3,4-dichloro-phenyl)-ethyl]-amide], the IC50 in assay [1] was 0.0021 µM; in assay [2], > 10 µM; in assay [3], > 10 µM; in assay [4], > 10 µM; in assay [5], > 10 µM.
Consider `CCC(C)[C@@H](N)C(=O)N[C@@H](Cc1cccc(C)c1)C(=O)NCc1ccc(N)nc1` (stereo partly drawn) [Example 27, (R)-2-Amino-3-methyl-pentanoic acid {(S)-1-[(6-amino-pyridin-3-ylmethyl)-carbamoyl]-2-m-tolyl-ethyl}-amide], for which the half-maximal inhibitory concentration (IC50) in assay [1] is 0.0025 µM; in assay [2] it was > 10 µM; in assay [3] it was > 10 µM; in assay [4], > 10 µM; in assay [5], > 10 µM.
`Cc1cc(C)c(C(=O)N[C@@H](Cc2ccc(F)c(F)c2)C(=O)NCc2ccc(N)nc2)[nH]1` [Example 243, 3,5-Dimethyl-1H-pyrrole-2-carboxylic acid [(S)-1-[(6-amino-pyridin-3-ylmethyl)-carbamoyl]-2-(3,4-difluoro-phenyl)-ethyl]-amide]: the IC50 was 0.0034 µM in assay [1]; > 10 µM in assay [2]; > 10 µM in assay [3]; > 10 µM in assay [4]; > 10 µM in assay [5].
On to `Nc1ccc(CNC(=O)[C@H](CC2CCCC3CCCCC32)NC(=O)[C@H](N)Cc2ccc(Cl)cc2)cn1` (stereo partly drawn) [Example 13, (R)-2-Amino-N-[(S)-1-[(6-amino-pyridin-3-ylmethyl)carbamoyl]-2-(decahydro-naphthalen-1-yl)-ethyl]-3-(4-chloro-phenyl)-propionamide], for which the IC50 in assay [1] is 0.0098 µM; in assay [2], > 10 µM; in assay [3], > 10 µM; in assay [4] it was > 10 µM; in assay [5], > 10 µM.
As for `CC(C)(C)[C@@H](N)C(=O)N[C@@H](Cc1ccc(Cl)c(Cl)c1)C(=O)NCc1ccc(N)nc1` [Example 61, (R)-2-Amino-N-[(S)-1-[(6-amino-pyridin-3-ylmethyl)-carbamoyl]-2-(3,4-dichloro-phenyl)-ethyl]-3,3-dimethyl-butyramide], the IC50 was 0.0004 µM in assay [1]; > 10 µM in assay [2]; > 10 µM in assay [3]; > 10 µM in assay [4]; > 10 µM in assay [5].
